Experimental findings from patent publication US7888357B2, “Anti-inflammatory and protein kinase inhibitor compositions and related methods for downregulation of detrimental cellular responses and inhibition of cell death” (Northwestern University, priority 2001, dated 2011) are described below.

For one experiment, the system named is BV-2 microglial cells. Description: Cell-based screen for inhibition of LPS-stimulated NO release (Griess assay). The following applies: LPS-stimulated BV-2 cells, 24 hr, nitrite in conditioned media. Further details: species or system murine. On the procedure:
FIG. 1. Cell-based screen for inhibition of LPS-stimulated NO release. […] Inhibition is expressed as percent control, where the control is the NO accumulation from cells stimulated with LPS alone.
The rationale for using BV-2 cells in high throughput screening was the paucity of well-characterized human microglial cell lines, and the relevant activation responses and signaling pathways reflect those seen in human and rodent primary microglial cultures. Compounds were tested for their effects on NO accumulation in conditioned media of LPS-stimulated BV-2 cells by measurement of nitrite production by the Griess assay as a read-out for iNOS activity, as described previously. Stock solutions of compounds were prepared in dimethylsulfoxide (DMSO) or in water. When stock solutions were prepared in DMSO, control wells contained the same final concentration of DMSO as the compound-containing wells. […] Solutions of compounds for cell treatments were diluted to a 10× final concentration by dilution of stock solutions in αMEM media. The commercially available drugs tested were: compound 5 (KN93 from Alexis); compound 6 (pyrrolidinedithiocarbamate or PDTC from Sigma), compound 7 (SB203580 from Alexis Corporation), compound 8 (PD98059 from Alexis Corporation), and compound 9 (UO126 from Cell Signaling). […] Respectively, Western blots of cell lysates were done with the following antibodies: monoclonal anti-iNOS (1:1000 dilution, Transduction Labs); polyclonal anti-rat IL-1β (1:1000 dilution, R&D Systems, Inc.); monoclonal anti-glial fibrillary acidic protein (GFAP) (1:[…] dilution, Sigma); polyclonal anti-rat alioE (1:15,000 dilution) prepared as described; polyclonal anti-COX-2 (1:500 dilution) and monoclonal anti-phosphoATF2 (1:1000 dilution) from Santa Cruz Biotechnology, polyclonal anti-phosphoCREB (1:1000 dilution), and polyclonal anti-phosphop38 MAPK (1:1000 dilution). Reconstituted enzyme assays were done as described s. The sources of protein kinases were: bovine heart PKA from Promega, rat brain PKC from Calbiochem, rat CaMKII from New England Biolabs, chicken gizzard MLCK prepared as described, and a p38 MAP kinase kit containing recombinant Xenopus p38-MAPK and its human substrate from Upstate Biotechnology. The catalytic domains of these protein kinases retain a high level of amino acid sequence identity across mammalian species, consistent with the lack of documented major differences across species for the in vitro catalytic activity of a given kinase.
FIG. 4. Cell-based screen for functional effects of synthetic compounds on LPS-stimulated NO release from BV-2 cells. BV-2 cells were incubated for 24 hr with LPS (500 ng/ml) in the presence of increasing concentrations of: A) MW01-070C; B) MW01-026Z; C) MW01-118Z; D) MW01-119Z; E) MW01-051Z; F) MW01-160Z; G) MW01-196A; H) MW01-024Z; I) SB203580; J) PDTC; K) U0126; L) PD98059. The nitrite levels in conditioned media were determined. Inhibition is expressed as percentage of control values, where the control is the nitrite level in cells stimulated with LPS alone.
Compounds were tested for their effects on NO production by LPS-stimulated BV-2 cells as previously described [Mirzoeva, S., Koppal, T., Petrova, T. V., Lukas, T. J., Watterson, D. M., and Van Eldik, L. J. (1999) Brain Res. 844, 126-134]. The levels of nitrite, a stable NO metabolite, in conditioned media were determined by the Griess assay as previously described [Hu, J., Castets, F., Guevara, J. L., and Van Eldik, L. J. (1996) J. Biol. Chem. 271, 2543-2547]. Stock solutions of compounds were prepared in DMSO or in water. When stock solutions were prepared in DMSO, control wells contained the same final concentration of DMSO as the compound-containing wells. Solutions of compounds for cell treatments were diluted to a 10× final concentration by dilution of stock solutions of drugs in αMEM media.
In general terms: Griess reagent forms a coloured azo dye with nitrite.

The subject of a further experiment is rat astrocytes. Description: Western blot of glial activation responses in rat astrocyte cultures. The following applies: LPS-stimulated rat astrocytes, 24 hr, Western blot. It is filed as cell-based. On the procedure: FIG. 2. Selective effects of compound 1 (MW01-070C) on glial activation responses and gene-regulating protein kinase pathways. BV-2 cells and rat astrocytes were treated with control buffer (C) or stimulated with LPS or Aβ1-42 peptide in the presence or absence of compound 1, and cell lysates were analyzed by Western blots. (A) Astrocytes treated with LPS and compound 1 show concentration-dependent inhibition of iNOS and IL-1β production but not GFAP. (B) Astrocytes treated with A β1-42 and compound 1 (10 μM) show inhibition of iNOS and IL-1β but not apoE and COX-2. (C) BV-2 cells treated with LPS and compound 1 (10 μM) show inhibition of phosphorylated (p-) CREB but not p-p38 and p-ATF2, as assayed with antibodies that are specific for the phosphorylated forms of the proteins. Data are expressed as percent control (mean±SD; n=3 determinations).
The rationale for using BV-2 cells in high throughput screening was the paucity of well-characterized human microglial cell lines, and the relevant activation responses and signaling pathways reflect those seen in human and rodent primary microglial cultures. Compounds were tested for their effects on NO accumulation in conditioned media of LPS-stimulated BV-2 cells by measurement of nitrite production by the Griess assay as a read-out for iNOS activity, as described previously. Stock solutions of compounds were prepared in dimethylsulfoxide (DMSO) or in water. When stock solutions were prepared in DMSO, control wells contained the same final concentration of DMSO as the compound-containing wells. […] Solutions of compounds for cell treatments were diluted to a 10× final concentration by dilution of stock solutions in αMEM media. The commercially available drugs tested were: compound 5 (KN93 from Alexis); compound 6 (pyrrolidinedithiocarbamate or PDTC from Sigma), compound 7 (SB203580 from Alexis Corporation), compound 8 (PD98059 from Alexis Corporation), and compound 9 (UO126 from Cell Signaling). SB203580, U0126 and PD98059, PDTC, and KN93 are used as pathway-selective inhibitors of p38 MAPK, MEK1/2, NFκB, and CaMKII signaling pathways. Respectively, Western blots of cell lysates were done with the following antibodies: monoclonal anti-iNOS (1:1000 dilution, Transduction Labs); polyclonal anti-rat IL-1β (1:1000 dilution, R&D Systems, Inc.); monoclonal anti-glial fibrillary acidic protein (GFAP) (1:[…] dilution, Sigma); polyclonal anti-rat alioE (1:15,000 dilution) prepared as described; polyclonal anti-COX-2 (1:500 dilution) and monoclonal anti-phosphoATF2 (1:1000 dilution) from Santa Cruz Biotechnology, polyclonal anti-phosphoCREB (1:1000 dilution), and polyclonal anti-phosphop38 MAPK (1:1000 dilution). Reconstituted enzyme assays were done as described s. The sources of protein kinases were: bovine heart PKA from Promega, rat brain PKC from Calbiochem, rat CaMKII from New England Biolabs, chicken gizzard MLCK prepared as described, and a p38 MAP kinase kit containing recombinant Xenopus p38-MAPK and its human substrate from Upstate Biotechnology. The catalytic domains of these protein kinases retain a high level of amino acid sequence identity across mammalian species, consistent with the lack of documented major differences across species for the in vitro catalytic activity of a given kinase.
FIG. 5. Effects of two compounds on LPS-stimulated INOS and IL-1β production in rat astrocyte cultures. Astrocyte cultures were incubated for 24 hr with control buffer (C), LPS (100 ng/ml) alone, or LPS in the presence of increasing concentrations (0.1, 0.3, 1, 3, 10 μM) of MW01-070C (panel A) or MW01-196A (panel B). The levels of iNOS, proIL-1β, and GFAP were determined by Western blot of cell lysates.
FIG. 6. Effects of MW01-070C on astrocytes treated with various activating stimuli, and analysis of multiple activation responses. Astrocyte cultures were stimulated for 12 hr with Aβ (10 μM), S100B (0.5 μM), or LPS (100 ng/ml) in the absence (−) or presence (+) of MW01-070C (10 μM). […]
Background: A western blot detects proteins with antibodies after separation by electrophoresis.

The next experiment has as its target T1, CaMKII (Rattus norvegicus, UniProt P11275).
T1 construct: purchased New England Biolabs
The experiment is described as follows: Reconstituted enzyme assay, CaMKII. It is filed as biochemical. The following applies: Table 6; read-out: Inhibition CAMKII. How it is done:
(§1) [table] […] The rationale for using BV-2 cells in high throughput screening was the paucity of well-characterized human microglial cell lines, and the relevant activation responses and signaling pathways reflect those seen in human and rodent primary microglial cultures. Compounds were tested for their effects on NO accumulation in conditioned media of LPS-stimulated BV-2 cells by measurement of nitrite production by the Griess assay as a read-out for iNOS activity, as described previously. Stock solutions of compounds were prepared in dimethylsulfoxide (DMSO) or in water. When stock solutions were prepared in DMSO, control wells contained the same final concentration of DMSO as the compound-containing wells. […] Solutions of compounds for cell treatments were diluted to a 10× final concentration by dilution of stock solutions in αMEM media. […] Reconstituted enzyme assays were done as described s. The sources of protein kinases were: bovine heart PKA from Promega, rat brain PKC from Calbiochem, rat CaMKII from New England Biolabs, chicken gizzard MLCK prepared as described, and a p38 MAP kinase kit containing recombinant Xenopus p38-MAPK and its human substrate from Upstate Biotechnology. The catalytic domains of these protein kinases retain a high level of amino acid sequence identity across mammalian species, consistent with the lack of documented major differences across species for the in vitro catalytic activity of a given kinase.

In experiment [1] the target is death associated protein kinase (DAPK) (Homo sapiens, UniProt P53355). Description: Enzyme assay, DAPK. It is filed as biochemical. The following applies: Table 6; read-out: Inhibition DAPK. On the procedure: Therefore, compound MW01-026Z was selected as a starting point for variations on component A (Table 6). […] However, none of the A variations appeared to improve the activity and selectivity profile of CompoundMW01-026Z. (For purposes of illustration, only, component G was maintained throughout as an acyl moiety, while component R2 was varied as shown. All such compositions are available using the synthetic techniques described herein. Enzyme assays were conducted per procedures described elsewhere herein.) A more comprehensive structure activity relationship is summarized in Table 7, below.
Chain of death associated protein kinase (DAPK) (P53355 whole entry, species assumed): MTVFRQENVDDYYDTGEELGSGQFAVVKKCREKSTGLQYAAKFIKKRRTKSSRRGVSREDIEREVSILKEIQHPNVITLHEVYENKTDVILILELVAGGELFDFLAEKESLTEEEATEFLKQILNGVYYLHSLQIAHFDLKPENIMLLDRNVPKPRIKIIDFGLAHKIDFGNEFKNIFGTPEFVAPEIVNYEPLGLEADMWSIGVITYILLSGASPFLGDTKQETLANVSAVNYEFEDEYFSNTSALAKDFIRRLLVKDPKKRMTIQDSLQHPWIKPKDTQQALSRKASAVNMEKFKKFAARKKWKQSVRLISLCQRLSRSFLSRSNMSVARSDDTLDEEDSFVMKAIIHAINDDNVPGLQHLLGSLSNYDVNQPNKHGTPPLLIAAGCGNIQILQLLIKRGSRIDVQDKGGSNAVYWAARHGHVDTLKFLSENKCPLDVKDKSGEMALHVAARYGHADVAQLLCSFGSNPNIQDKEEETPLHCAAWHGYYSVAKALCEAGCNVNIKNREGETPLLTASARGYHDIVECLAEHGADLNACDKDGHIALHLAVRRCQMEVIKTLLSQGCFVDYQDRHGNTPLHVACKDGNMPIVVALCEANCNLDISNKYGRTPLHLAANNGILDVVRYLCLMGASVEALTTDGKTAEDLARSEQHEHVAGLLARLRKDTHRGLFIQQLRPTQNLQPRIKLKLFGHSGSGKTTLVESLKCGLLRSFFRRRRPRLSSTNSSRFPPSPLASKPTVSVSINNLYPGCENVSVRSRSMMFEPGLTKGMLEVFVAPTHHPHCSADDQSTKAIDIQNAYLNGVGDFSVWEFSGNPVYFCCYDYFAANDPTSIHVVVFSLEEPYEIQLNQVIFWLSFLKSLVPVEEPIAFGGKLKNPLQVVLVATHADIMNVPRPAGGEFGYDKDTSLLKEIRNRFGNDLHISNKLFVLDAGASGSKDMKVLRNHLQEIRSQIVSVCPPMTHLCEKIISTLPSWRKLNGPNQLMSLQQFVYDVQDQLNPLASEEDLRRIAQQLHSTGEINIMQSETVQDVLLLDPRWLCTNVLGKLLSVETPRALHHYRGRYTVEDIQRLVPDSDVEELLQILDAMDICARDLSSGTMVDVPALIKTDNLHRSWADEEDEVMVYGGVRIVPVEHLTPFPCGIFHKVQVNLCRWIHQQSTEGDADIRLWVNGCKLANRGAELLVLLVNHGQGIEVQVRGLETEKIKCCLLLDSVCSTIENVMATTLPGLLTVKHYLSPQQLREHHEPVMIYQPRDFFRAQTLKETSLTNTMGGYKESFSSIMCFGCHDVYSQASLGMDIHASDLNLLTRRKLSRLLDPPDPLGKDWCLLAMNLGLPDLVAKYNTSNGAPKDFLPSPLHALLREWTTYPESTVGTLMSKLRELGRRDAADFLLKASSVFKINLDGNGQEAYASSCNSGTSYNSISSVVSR
With reference to the compositions of Table 3 and the enzyme assay techniques described elsewhere herein, Table 7 provides structural activity relationships observed, in accordance with this invention.

Experiment [2] deals with T2, myosin light chain kinase (MLCK) (Gallus gallus, UniProt P11799).
T2 construct: chicken gizzard MLCK prepared as described; from tissue; host or cells: chicken gizzard
T2 sequence (P11799 935-1906): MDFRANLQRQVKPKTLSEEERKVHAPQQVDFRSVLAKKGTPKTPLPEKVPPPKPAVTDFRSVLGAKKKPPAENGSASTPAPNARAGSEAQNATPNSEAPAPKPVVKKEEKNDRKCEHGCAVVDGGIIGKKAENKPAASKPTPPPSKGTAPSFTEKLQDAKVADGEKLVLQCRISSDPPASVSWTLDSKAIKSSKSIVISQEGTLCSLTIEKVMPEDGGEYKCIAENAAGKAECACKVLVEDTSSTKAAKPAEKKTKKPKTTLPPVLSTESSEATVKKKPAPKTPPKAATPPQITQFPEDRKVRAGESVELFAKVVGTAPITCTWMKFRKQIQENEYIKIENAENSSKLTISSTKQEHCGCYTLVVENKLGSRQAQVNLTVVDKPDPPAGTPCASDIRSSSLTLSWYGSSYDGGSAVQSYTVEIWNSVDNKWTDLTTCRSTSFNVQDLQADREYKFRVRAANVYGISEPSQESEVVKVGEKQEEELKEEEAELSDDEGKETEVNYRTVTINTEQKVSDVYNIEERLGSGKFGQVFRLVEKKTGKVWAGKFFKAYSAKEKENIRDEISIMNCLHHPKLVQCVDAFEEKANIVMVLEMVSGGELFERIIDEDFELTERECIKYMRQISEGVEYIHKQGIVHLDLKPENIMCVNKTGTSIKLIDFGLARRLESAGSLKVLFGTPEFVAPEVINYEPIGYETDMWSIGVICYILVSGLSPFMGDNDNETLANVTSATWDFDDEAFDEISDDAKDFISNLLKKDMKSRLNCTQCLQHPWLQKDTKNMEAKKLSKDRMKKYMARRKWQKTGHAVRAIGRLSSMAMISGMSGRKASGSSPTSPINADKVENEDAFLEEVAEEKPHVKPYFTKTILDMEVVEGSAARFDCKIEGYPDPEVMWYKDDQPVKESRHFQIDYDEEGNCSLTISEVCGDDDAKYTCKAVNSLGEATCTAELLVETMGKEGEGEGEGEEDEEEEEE
The experiment is described as follows: Reconstituted enzyme assay, MLCK. It is filed as biochemical, chicken. The following applies: Table 6; read-out: Inhibition MLCK. How it is done:
as §1

T1 sequence (P11275 1-325 limits assumed): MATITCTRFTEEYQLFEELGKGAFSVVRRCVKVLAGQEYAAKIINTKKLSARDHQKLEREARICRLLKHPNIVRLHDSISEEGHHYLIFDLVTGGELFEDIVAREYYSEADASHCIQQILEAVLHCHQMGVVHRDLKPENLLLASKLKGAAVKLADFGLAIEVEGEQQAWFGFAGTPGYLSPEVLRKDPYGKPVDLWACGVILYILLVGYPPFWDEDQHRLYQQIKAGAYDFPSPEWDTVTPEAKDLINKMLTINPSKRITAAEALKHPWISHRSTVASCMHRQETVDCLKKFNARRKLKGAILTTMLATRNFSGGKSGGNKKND

With `Cc1ccn(CCCCCCCCCCC(=O)N2CCN(c3ncccn3)CC2)c(=N)c1` [MW01-196-AS], the “inhibition of NO accumulation by activated glia” value (“inhibition of NO accumulation” below) in the experiment on BV-2 microglial cells is “little activity”. Moreover, in the experiment with rat astrocytes, the IL-1β production result was “does not show dose dependent inhibition” and the iNOS production result is on record as “does not show dose dependent inhibition”. `Cc1cc(NC(=O)CCCCCCCCCCn2nc3c(cc2=N)CCc2ccccc2-3)nnc1-c1ccccc1` [MW01-008B]: the IC50 on CaMKII is 50 to 100 µM; in experiment [1] it was 50 to 100 µM; in experiment [2], < 20 µM. For the compound `C[S+]([O-])c1ccc(-c2nc(-c3ccncc3)c(-c3ccc(F)cc3)[nH]2)cc1` (centres unmarked) [Compound 7, SB203580, reference compound], in the experiment with BV-2 microglial cells, the “inhibition of NO accumulation” value is given as “less effective”. Regarding `N#CC(=C(/N)Sc1ccccc1N)/C(C#N)=C(\N)Sc1ccccc1N` [Compound 9, U0126, reference compound], the “inhibition of NO accumulation” value with BV-2 microglial cells was “less effective”.

Take `Cc1ccc(NC(=O)CCCCCCCCCCn2nc3c(cc2=N)CCc2ccccc2-3)nn1` [MW01-020B]: the IC50 (at CaMKII; in experiment [1]; in experiment [2]) was > 100 µM throughout.

For `N=c1cc2c(nn1CCCCCCCC(=O)Nc1ccc(-c3ccccc3)nn1)-c1ccccc1CC2` [MW01-097B], the IC50 is > 100 µM on CaMKII, > 100 µM in experiment [1] and 20 to 50 µM in experiment [2]. Turning to `Cc1cc(=N)n(CCCCCCCCCCC(=O)Nc2ccc(-c3ccccc3)nn2)nc1-c1ccccc1` [MW01-103B], the IC50 is > 100 µM at CaMKII, 50 to 100 µM in experiment [1] and 20 to 50 µM in experiment [2]. `O=C(CCCCCCCCCNc1ccc(-c2ccccc2)nn1)Nc1ccc(-c2ccccc2)nn1` [MW01-038B]: the IC50 in experiment [1] and in experiment [2] was > 100 µM in each case. Consider `N=c1cc2c(nn1CCCCC(=O)N1CCN(c3ncccn3)CC1)-c1ccccc1CC2` [MW01-160Z], for which the “inhibition of NO accumulation” value in the experiment with BV-2 microglial cells is “no more active than inhibitors of the NFκB pathway (PDTC)”. As for `N=c1cc2c(nn1CCCCCCCC(=O)N1CCN(c3ncccn3)CC1)-c1ccccc1CC2` [MW01-051Z], in the experiment on BV-2 microglial cells, the “inhibition of NO accumulation” value is recorded as “significant NO inhibition activity”. Regarding `O=C(CCCCCCCCCCN1CCN(c2ncccn2)CC1)N1CCN(c2ncccn2)CC1` [MW01-024Z], in the experiment on BV-2 microglial cells, the “inhibition of NO accumulation” value is “does not have any greater cellular activity than commercially available drugs and inhibitors”. As for `N=c1ccc(-c2ccccc2)nn1CCCCCCCC(=O)Nc1ccc(-c2ccccc2)nn1` [MW01-086B], the IC50 in experiment [1] and in experiment [2] was > 100 µM in each case. As for `COc1cccc(-c2cc(=O)c3ccccc3o2)c1N` [Compound 8, PD98059, reference compound], in the experiment with BV-2 microglial cells, the “inhibition of NO accumulation” value is “less effective”. Take `N=c1cc2c(nn1CCCCCCCCCCC(=O)Nc1nnc(-c3ccccc3)c3ccccc13)-c1ccccc1CC2` [MW01-119Z]: in the experiment on BV-2 microglial cells, the “inhibition of NO accumulation” value was “better efficacy than established anti-inflammatory compounds like SB203580”.
